Where a SMILES comes first, the peptide text is derived from it. Bridges are numbered along the chain shown (N, C = ends). [ ]: non-standard residue; d: D form. The star is where a group is joined. hPhe(3-Cl-4-CF3) = N[C@@H](CCc1ccc(C(F)(F)F)c(Cl)c1)C(=O)O; NPrPhe(4-CF3) = CCCN[C@@H](Cc1ccc(C(F)(F)F)cc1)C(=O)O; NEtPhe(4-Me) = CCN[C@@H](Cc1ccc(C)cc1)C(=O)O; NMeGly(cPent) = CN[C@H](C(=O)O)C1CCCC1; Pro(4,4-F2) = O=C(O)[C@@H]1CC(F)(F)CN1; Hyp = O=C(O)[C@@H]1C[C@@H](O)CN1; Gly(cBu) = N[C@H](C(=O)O)C1CCC1; NMeD = CN[C@@H](CC(=O)O)C(=O)O; NMeL = CN[C@@H](CC(C)C)C(=O)O; Morpholide = C1CN(*)CCO1; NMeA = CN[C@@H](C)C(=O)O; Ac5c = NC1(C(=O)O)CCCC1; Aze = O=C(O)[C@@H]1CCN1; Ac4c = NC1(C(=O)O)CCC1; Sar = CNCC(=O)O
Columns and labels:
[1] = target: GDP-bound NRAS wild-type protein (Homo sapiens, UniProt P01111); assay: Binding to NRAS by surface plasmon resonance (SPR), KD and KD ratio to KRAS
Chain of GDP-bound NRAS wild-type protein (P01111 whole entry): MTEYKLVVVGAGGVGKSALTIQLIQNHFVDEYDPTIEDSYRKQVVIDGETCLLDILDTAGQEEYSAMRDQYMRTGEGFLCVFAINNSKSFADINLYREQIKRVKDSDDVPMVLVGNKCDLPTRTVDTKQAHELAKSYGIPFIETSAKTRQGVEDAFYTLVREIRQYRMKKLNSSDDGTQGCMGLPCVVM
How it was run: (§1)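 Captured GDP-RAS (~100–300 RU) was exposed to increasing compound concentrations, 75 s per step, in running buffer with 10 µM GDP, 10 mM MgCl2 and 4% DMSO at pH 7.4.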

HRAS wild-type protein = HRAS wild-type protein (Homo sapiens, UniProt P01112); assay: Binding to HRAS by surface plasmon resonance (SPR), KD and KD ratio to KRAS
Chain of HRAS wild-type protein (P01112 whole entry): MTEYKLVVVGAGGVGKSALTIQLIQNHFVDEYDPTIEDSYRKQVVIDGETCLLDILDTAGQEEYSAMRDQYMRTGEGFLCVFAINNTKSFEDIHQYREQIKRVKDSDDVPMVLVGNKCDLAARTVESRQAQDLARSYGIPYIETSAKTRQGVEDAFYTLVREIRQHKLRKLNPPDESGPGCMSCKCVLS
How it was run: as §1

[2] = tested on: human lung cancer strain NCI-H441; format: cell-based
How it was run: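 Step one: dispense the test compound in serial DMSO dilutions. Step three: add the reagent and measure […].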

[3] = ratio of KD for GDP-bound NRAS wild-type protein to KD for KRAS
[4] = ratio of KD for HRAS wild-type protein to KD for KRAS
[5] = ratio of KD value for GDP-bound NRAS wild-type protein to KD value for KRAS (SPR)
[6] = ratio of KD value for HRAS wild-type protein to KD value for KRAS (SPR)
[7] = ratio of the KD value with respect to GDP-bound NRAS wild-type protein to the KD value with respect to KRAS
[8] = ratio of the KD value with respect to HRAS wild-type protein to the KD value with respect to KRAS

Row | IC50 [2] | SMILES | NRAS /KRAS [1, 3] | HRAS /KRAS (HRAS wild-type protein; [4]) | NRAS /KRAS [1, 7] | HRAS /KRAS (HRAS wild-type protein; [8]) | other results
1 | 5.8 nM | CCO[C@@H]1C[C@H]2C(=O)NC3(CC(C)(C)C3)C(=O)N(C)[C@@H](C3CCCC3)C(=O)N(C)[C@H](C(=O)N(C)C)CC(=O)N(C)[C@@H](CC3CCC3)C(=O)N[C@@H]([C@@H](C)CC)C(=O)N(C)CC(=O)N(C)[C@H]3C/C=C\CCN(C3=O)[C@@H](Cc3ccc(C(F)(F)F)cc3)C(=O)N(C)CC(=O)N[C@@H](CCc3ccc(C(F)(F)F)c(Cl)c3)C(=O)N2C1 [PP1752] | – | – | – | – | NRAS /KRAS [1, 5]: A (a compound having 10 or more and less than 20 is denoted as A); HRAS /KRAS (HRAS wild-type protein; [6]): A (a compound having 10 or more and less than 20 is denoted as A)
2 | 4.6 nM | CCO[C@@H]1C[C@H]2C(=O)NC3(CCCC3)C(=O)N(C)[C@@H](C3CCCC3)C(=O)N(C)[C@H](C(=O)N(C)C)CC(=O)N(C)[C@@H](CC(C)C)C(=O)N[C@@H]([C@@H](C)CC)C(=O)N(C)CC(=O)N(C)[C@H]3C/C=C\CCN(C3=O)[C@@H](Cc3ccc(C)cc3)C(=O)N(C)CC(=O)N[C@@H](CCc3ccc(C(F)(F)F)c(OC)c3)C(=O)N2C1 [PP2197] | – | – | A (a compound having 10 or more and less than 20 is denoted as A) | B (a compound having 3 or more and less than 10 is denoted as B) | –
3 | 9.6 nM | CCOC[C@H]1C(=O)N[C@@H]([C@@H](C)CC)C(=O)N2CCC[C@H]2C(=O)N(C)[C@H]2C/C=C\CCN(C2=O)[C@@H](Cc2ccc(C(F)(F)F)cc2)C(=O)N(C)CC(=O)N[C@@H](CCc2ccc(C(F)(F)F)c(OC)c2)C(=O)N2C[C@H](OCC)C[C@H]2C(=O)N(C)C2(CCC2)C(=O)N(C)[C@@H](C(CC)CC)C(=O)N(C)[C@H](C(=O)N(C)C)CC(=O)N1C [PP2319] | – | – | AA (a compound having 20 or more is denoted as AA) | A (a compound having 10 or more and less than 20 is denoted as A) | –
4 | 4.4 nM | CCO[C@@H]1C[C@H]2C(=O)NC3(CCC3)C(=O)N(C)[C@@H](C3CCCC3)C(=O)N(C)[C@H](C(=O)N(C)CCOC)CC(=O)N(C)[C@@H](CC(C)C)C(=O)N[C@@H]([C@@H](C)CC)C(=O)N(C)CC(=O)N(C)[C@H]3C/C=C\CCN(C3=O)[C@@H](Cc3ccc(C(F)(F)F)cc3)C(=O)N(C)CC(=O)N[C@@H](CCc3ccc(C(F)(F)F)c(OC)c3)C(=O)N2C1 [PP1324] | – | – | – | – | NRAS /KRAS ([1]; ratio of KD with respect to GDP-bound NRAS wild-type protein to KD with respect to KRAS): A (a compound having 10 or more and less than 20 is denoted as A); HRAS /KRAS (HRAS wild-type protein; ratio of KD with respect to HRAS wild-type protein to KD with respect to KRAS): A (a compound having 10 or more and less than 20 is denoted as A)
5 | 2.6 nM | CC[C@H](C)[C@@H]1NC(=O)[C@H](CC2CC2)N(C)C(=O)C[C@@H](C(=O)N(C)CC)N(C)C(=O)[C@H](C2CCCC2)N(C)C(=O)C2(CC(C)(C)C2)NC(=O)[C@@H]2C[C@@H](F)CN2C(=O)[C@H](CCc2cc(F)c(C(F)(F)F)c(F)c2)NC(=O)CN(C)C(=O)[C@H](Cc2ccc(C(F)(F)F)cc2)N2CC/C=C\C[C@@H](C2=O)N(C)C(=O)CN(C)C1=O [PP1570] | – | – | – | – | NRAS /KRAS [1, 5]: AA (a compound having 20 or more is denoted as AA); HRAS /KRAS (HRAS wild-type protein; [6]): A (a compound having 10 or more and less than 20 is denoted as A)
6 | 3090 nM | CCO[C@@H]1C[C@H]2C(=O)NC3(CCC3)C(=O)N(C)[C@@H](C3CCCC3)C(=O)N(C)[C@H](C(=O)N3CCOCC3)CC(=O)N(C)[C@@H](COC)C(=O)N[C@@H]([C@@H](C)CC)C(=O)N(C)CC(=O)N(C)[C@H]3CCCCCN(C3=O)[C@@H](Cc3ccc(C(F)(F)F)cc3)C(=O)N(C)CC(=O)N[C@@H](CCc3ccc(C)cc3)C(=O)N2C1 [PP0850] | B (a compound having 3 or more and less than 10 is denoted as B) | B (a compound having 3 or more and less than 10 is denoted as B) | – | – | –
7 | 6.6 nM | CCO[C@@H]1C[C@H]2C(=O)NC3(CC(C)(C)C3)C(=O)N(C)[C@@H](C(CC)CC)C(=O)N(C)[C@H](C(=O)N(C)C)CC(=O)N(C)[C@@H](C)C(=O)N[C@@H]([C@@H](C)CC)C(=O)N(C)CC(=O)N(C)[C@H]3C/C=C\CCN(C3=O)[C@@H](Cc3ccc(C)cc3)C(=O)N(C)CC(=O)N[C@@H](CCc3cc(F)c(C(F)(F)F)c(F)c3)C(=O)N2C1 [PP2143] | – | – | A (a compound having 10 or more and less than 20 is denoted as A) | A (a compound having 10 or more and less than 20 is denoted as A) | –
8 | 13.7 nM | CCC[C@H]1C(=O)N[C@@H](C2CCCCC2)C(=O)N(C)CC(=O)N(C)[C@H]2C/C=C\CCN(C2=O)[C@@H](Cc2ccc(C(F)(F)F)cc2)C(=O)N(C)CC(=O)N[C@@H](CCc2ccc(C(F)(F)F)c(Cl)c2)C(=O)N2C[C@H](OCC)C[C@H]2C(=O)NC2(CC(C)(C)C2)C(=O)N(C)[C@@H](C2CCCC2)C(=O)N(C)[C@H](C(=O)N(C)C)CC(=O)N1C [PP2996] | AA (a compound having 20 or more is denoted as AA) | A (a compound having 10 or more and less than 20 is denoted as A) | – | – | –

Further lines, the compound ahead of its results:

Row | SMILES | IC50 [2] | NRAS /KRAS [1, 3] | HRAS /KRAS (HRAS wild-type protein; [4]) | NRAS /KRAS [1, 7] | HRAS /KRAS (HRAS wild-type protein; [8]) | other results
9 | CCCN1C(=O)[C@@H]2CCN2C(=O)[C@H](C)N(C)C(=O)[C@H](C2CCC2)NC(=O)[C@H](CC(C)C)N(C)C(=O)C[C@@H](C(=O)N2CCOCC2)N(C)C(=O)[C@H](C2CCCC2)N(C)C(=O)C2(CCCC2)NC(=O)[C@@H]2CCCN2C(=O)[C@H](CCc2ccc(C(F)(F)F)c(Cl)c2)NC(=O)CN(C)C(=O)[C@@H]1Cc1ccc(C(F)(F)F)cc1 [PP0271] ([NMeL][Gly(cBu)][NMeA][Aze][NPrPhe(4-CF3)][Sar][hPhe(3-Cl-4-CF3)]P[Ac5c][NMeGly(cPent)][NMeD]-Morpholide; lactam N-11) | 6.5 nM | C (A compound having a KD ratio of 0.1 or more and less than 3 is denoted as C) | B (a compound having 3 or more and less than 10 is denoted as B) | – | – | –
10 | CC[C@H](C)[C@@H]1NC(=O)[C@H](C)N(C)C(=O)C[C@@H](C(=O)N2CCOCC2)N(C)C(=O)[C@H](C2CCCC2)N(C)C(=O)C2(CCCC2)NC(=O)[C@@H]2CCCN2C(=O)[C@H](CCc2ccc(C(F)(F)F)c(Cl)c2)NC(=O)CN(C)C(=O)[C@H](Cc2ccc(C)cc2)N(CC)C(=O)CN(C)C(=O)CN(C)C1=O [PP0031] ([NMeA]I[Sar][Sar][NEtPhe(4-Me)][Sar][hPhe(3-Cl-4-CF3)]P[Ac5c][NMeGly(cPent)][NMeD]-Morpholide; lactam N-11) | 11.4 nM | B (a compound having 3 or more and less than 10 is denoted as B) | C (A compound having a KD ratio of 0.1 or more and less than 3 is denoted as C) | – | – | –
11 | CCCN1C(=O)[C@@H]2CCN2C(=O)[C@H](C)N(C)C(=O)[C@H]([C@@H](C)CC)NC(=O)[C@H](CC(C)C)N(C)C(=O)C[C@@H](C(=O)N2CCOCC2)NC(=O)[C@H](C2CCCC2)N(C)C(=O)C2(CCCC2)NC(=O)[C@@H]2C[C@@H](OCC)CN2C(=O)[C@H](CCc2ccc(C(F)(F)F)c(Cl)c2)NC(=O)CN(C)C(=O)[C@@H]1Cc1ccc(C(F)(F)F)cc1 [PP0347] ([NMeL]I[NMeA][Aze][NPrPhe(4-CF3)][Sar][hPhe(3-Cl-4-CF3)][Hyp](Et)[Ac5c][NMeGly(cPent)]D-Morpholide; lactam N-11) | 10.9 nM | C (A compound having a KD ratio of 0.1 or more and less than 3 is denoted as C) | B (a compound having 3 or more and less than 10 is denoted as B) | – | – | –
12 | CC[C@H](C)[C@@H]1NC(=O)[C@H](C)N(C)C(=O)C[C@@H](C(=O)N(C)C)N(C)C(=O)[C@H](C2CCCC2)N(C)C(=O)C2(CCC2)NC(=O)[C@@H]2CCCN2C(=O)[C@H](CCc2cc(F)c(C(F)(F)F)c(F)c2)NC(=O)CN(C)C(=O)[C@H](Cc2ccc(C(F)(F)F)cc2)N2CCCC[C@@H](C2=O)N(C)C(=O)CN(C)C1=O [PP0581] | 8 nM | – | – | C (A compound having a KD ratio of 0.1 or more and less than 3 is denoted as C) | B (a compound having 3 or more and less than 10 is denoted as B) | –
13 | CCO[C@@H]1C[C@H]2C(=O)NC3(CCC3)C(=O)N(C)[C@@H](C3CCCC3)C(=O)N(C)[C@H](C(=O)N3CCOCC3)CC(=O)N(C)[C@@H](CC3CCCCC3)C(=O)N[C@@H]([C@@H](C)CC)C(=O)N(C)CC(=O)N(C)[C@H]3CCCCN(C3=O)[C@@H](Cc3ccc(C(F)(F)F)cc3)C(=O)N(C)CC(=O)N[C@@H](CCc3cc(F)c(C(F)(F)F)c(F)c3)C(=O)N2C1 [PP0716] | 6.3 nM | – | – | C (A compound having a KD ratio of 0.1 or more and less than 3 is denoted as C) | B (a compound having 3 or more and less than 10 is denoted as B) | –
14 | CCCN1C(=O)CN(C)C(=O)CN(C)C(=O)[C@H]([C@@H](C)CC)NC(=O)[C@H](CC(C)C)N(C)C(=O)C[C@@H](C(=O)N2CCOCC2)NC(=O)[C@H](C2CCCC2)N(C)C(=O)C2(CCC2)NC(=O)[C@@H]2CC(F)(F)CN2C(=O)[C@H](CCc2ccc(C(F)(F)F)c(Cl)c2)NC(=O)CN(C)C(=O)[C@@H]1Cc1ccc(C(F)(F)F)cc1 [PP0322] ([NMeL]I[Sar][Sar][NPrPhe(4-CF3)][Sar][hPhe(3-Cl-4-CF3)][Pro(4,4-F2)][Ac4c][NMeGly(cPent)]D-Morpholide; lactam N-11) | 74.2 nM | B (a compound having 3 or more and less than 10 is denoted as B) | C (A compound having a KD ratio of 0.1 or more and less than 3 is denoted as C) | – | – | –
15 | CCO[C@@H]1C[C@H]2C(=O)NC3(CC(F)(F)C3)C(=O)N(C)[C@@H](C3CCCC3)C(=O)N(C)[C@H](C(=O)N3CCOCC3)CC(=O)N(C)[C@@H](COC)C(=O)N[C@@H]([C@@H](C)CC)C(=O)N(C)CC(=O)N(C)[C@H]3CCCCCN(C3=O)[C@@H](Cc3ccc(C(F)(F)F)cc3)C(=O)N(C)CC(=O)N[C@@H](CCc3cc(F)c(C(F)(F)F)c(F)c3)C(=O)N2C1 [PP0843] | 38.6 nM | B (a compound having 3 or more and less than 10 is denoted as B) | B (a compound having 3 or more and less than 10 is denoted as B) | – | – | –
